Experimental data reported in article PMC7772889, “Integrating biokinetics and in vitro studies to evaluate developmental neurotoxicity induced by chlorpyrifos in human iPSC-derived neural stem cells undergoing differentiation towards neuronal and glial cells” (Reproductive Toxicology (Elmsford, N.y.), 2020).

Key:
[1] = test system: hiPSC-derived NSCs undergoing differentiation towards neurons and astrocytes; assay: In vitro biokinetics of CPF and metabolites in medium, cells and plastic (HPLC-UV)
Protocol: The nominal concentration causing 5 % decrease of viability (IC5) was previously identified, extrapolating a dose response curves obtained with six CPF nominal concentrations (0.49, 1.95, 7.81, 31.25, 125, and 500 μM) vs solvent control (0.1 % DMSO) after 14-day treatment by means of resazurin test (CellTiter-Blue® Reagent).
CPF stock solutions were prepared in DMSO and stored in glass at −20 °C until the beginning of each experiment. Freshly prepared treatment solutions were obtained after the dilution of stock solutions in a ratio of […] in serum-free culture medium, keeping DMSO concentration at 0.1 %. Aliquots of the stock and daily treatment solutions (considered as the starting solutions) were stored at −80 °C until HPLC analysis.
Cells (about 21,000 cells/cm^2), seeded on 6 well PDL- and reduced growth factor Matrigel coated plates, were treated during the differentiation process, starting from day 7 of differentiation up to day 21, with treatment/medium refreshed twice a week (Fig. 2). Exposure to CPF of cells or pre-coated wells (without cells) was initiated by adding 2 mL per well of the corresponding treatment solutions or the vehicle (control wells). Four biological replicates were carried out.
A first set of experiments was used to fine tune the experimental conditions, including time points and exposure conditions, taking into account possible metabolism, bioaccumulation and/or physical sequestration processes. All the fractions (i.e., medium, cells, plastic and matrix-bound fractions) were collected, at the first and last day of treatment, at different time points (i.e., 1, 3, 6, 24 h) selected on the basis of the intrinsic features of the compound and the cellular model. At each time point, the medium was transferred into amber glass vials and stored at −80 °C until HPLC analysis. Cells were washed twice with PBS (2 mL/well); to avoid dehydration of the cells, an aliquot of PBS was kept in each well. PBS was then removed, cells were scraped from the wells in 250 μL MeOH, additional 100 μL MeOH were added for washing and all the content was transferred into amber glass vials. The same procedure was applied also to the wells used for measuring matrix-bound material (without cells). Cells were then sonicated until they were fully homogenized (about 15 min). All fractions, including DMSO from control wells and MeOH used to measure possible plastic binding, were stored at −80 °C until HPLC analysis. Four biological replicates were carried out.
All samples from kinetic experiments were analysed using high-performance liquid chromatography (HPLC), as previously described, to quantify CPF and its metabolites. Prior to analysis, one volume of the collected medium samples was mixed with three volumes of MeOH. All the mixtures, including cell and matrix-bound samples, were vortexed for 30 s and then centrifuged (Eppendorf 5417R; 4 °C, 2500 rpm) for 10 min. Preliminary assays were conducted to evaluate CPF and its metabolite recovery after the solvent extraction procedure from each type of sample. […] Plastic-bound fraction was injected as such.
The HPLC system included a PerkinElmer Series 200 analytical pump, a Restek™ Pinnacle ODS Amine C18 column, a PerkinElmer LC 235 Diode Array Detector and the PerkinElmer Totalchrom™ 3.1.2 software for data acquisition and evaluation. For analysing CPF, CPFO and TCP, a gradient elution was applied at a flow rate of 1.0 mL/min, starting at 80:20 % methanol /buffer (Tris /HCl 50 mM EDTA 1 mM pH 7.4) and reaching after 4 min a percentage of 70:30 (v/v), respectively, maintained for 16 min. Then, the gradient returned to the initial concentration before the next sample was injected.

[2] = cited from earlier work
[3] = prenatal exposure to CPF; cited from earlier work

Q: Which results are given for `Oc1nc(Cl)c(Cl)cc1Cl` [TCP, 3,5,6-trichloro-2-pyridinol]?
A: TCP in the intracellular compartment or adsorbed to the plastic ([1]; any time point): No TCP was detectable; TCP present in the medium ([1]; first day of treatment with 21 μM CPF): 6–18%; TCP present in the medium ([1]; last day of treatment with 21 μM CPF): 7–14%

Q: With `CCCCc1oc2ccccc2c1C(=O)c1cc(I)c(OCCN(CC)CC)c(I)c1` [amiodarone, reference compound] as the compound, how does the “log Kow” value [2] read?
A: 7.6

Q: For `CCOP(=O)(O)OCC` [diethylphosphate], which “level in human postpartum meconium” value [3] is on record?
A: 0.80 to 3.20 µg/g

Q: With `CCOP(O)(=S)OCC` [diethylthiophosphate] as the compound, how does the “level in human postpartum meconium” value [3] read?
A: 2.0 to 5.6 µg/g

Q: What does the source list for chlorpyrifos-oxon [CPFO]?
A: CPFO adsorbed to the plastic ([1]; any time point): no CPFO adsorbed to the plastic was detectable; CPFO detection ([1]; last day of treatment): no longer detectable
